What was measured:
[1] = Particle size of nucleic acid lipid particles (Luc2-siRNA); format: physicochemical; details: compound/DSPC/cholesterol/DMG-PEG2000 50/10/38.5/1.5
Method in brief: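 Lipid particles formed from oil phase (test lipid/DSPC/cholesterol/DMG-PEG2000, 50/10/38.5/1.5 molar, 20 mmol/L total in ethanol) micromixed 1:3 with Luc2-siRNA in pH 4 acetate buffer (19.7 μmol/L); siRNA/lipid 339 mol/mol, PBS-diluted and dialyzed. Size measured on ELS-Z2 dynamic light scattering.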

[2] = Encapsulation rate of siRNA in nucleic acid lipid particles (Luc2-siRNA); format: physicochemical; details: compound/DSPC/cholesterol/DMG-PEG2000 50/10/38.5/1.5
Method in brief: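 Encapsulation rate was calculated as (total − outer-phase siRNA)/total ×100. Total siRNA was quantified spectrophotometrically after lipid-dissolving ethanol precipitation, and unencapsulated siRNA by RiboGreen in TE (ex 485/em 535 nm). The particles were test lipid/DSPC/cholesterol/DMG-PEG2000 at 50/10/38.5/1.5, formed by microfluidic mixing with Luc2-siRNA at pH 4 and dialyzed against PBS.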

[3] = tested on: DMS273 cells constantly expressing Luc; assay: Target reporter protein (Luc) knockdown in cell, reporter protein assay; format: cell-based; details: Homo sapiens, DMS-273; Luc2-siRNA lipid particles using the compound; siRNA 0.1 to 100 nmol/L; concentration at which Luc expression is knocked down to 50%; read-out: IC50
Method in brief: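 Nucleic acid lipid particles added at final 0.1 to 100 nmol/L to DMS273 human SCLC cells stably expressing Luc2, 24 hr exposure then 24 hr further culture after medium change. Luc quantified by Steady Glo luminescence after viable cell count; knockdown efficiency calculated and IC50 taken as concentration giving 50% Luc reduction.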

[4] = tested on: Factor VII (FVII) protein; assay: Measurement of Factor VII (FVII) protein in mouse plasma after FVII-siRNA lipid particles; format: in vivo, C57BL6/J mice; details: 0.1 mg/kg caudal vein, plasma 24 hours after administration, PBS group = 100%
Method in brief: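 C57BL6/J mice (n=3) received FVII-siRNA nucleic acid lipid particles at 0.1 mg/kg into the tail vein; controls got PBS. Each value is the percentage of the PBS-group FVII level.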

[5] = Particle size of nucleic acid lipid particles (FVII-siRNA); format: physicochemical
Method in brief: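 Lipid particles formed by micromixing ethanolic ionizable lipid/DSPC/cholesterol/DMG-PEG2000 (50/10/38.5/1.5 mol) with siRNA in pH 4 acetate buffer (3:1 water:oil), diluted with PBS and dialysed against PBS.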

[6] = Nucleic acid encapsulation rate of nucleic acid lipid particles (FVII-siRNA); format: physicochemical
Method in brief: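 Total nucleic acid was measured by adding 30 μL of 3 mol/L sodium acetate and 9 μL of glycogen to 60 μL of FVII-siRNA lipid particles, then precipitating with 1.5 mL ethanol, centrifuging, air-drying, redissolving in water, and reading on a Nanodrop. Outer-phase nucleic acid came from a RiboGreen assay (ex 485 nm, em 535 nm) on samples diluted 10,000× in 1×TE. Encapsulation (%) = (total − outer)/total × 100.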

Compound: CCCCCCCCCC(=O)OCCN(CCOC(=O)OC(CCCCCC)CCCC(=O)OCC(CCCC)CCCCCC)CCN(CC)CC (stereo not drawn) [Example 107, 2-Butyloctyl 6-(2-(decanoyloxy)ethyl)-3-ethyl-12-hexyl-10-oxo-9,11-dioxa-3,6-diazahexadecan-16-oate]
- Particle size (nm) [1]: 64.8 nm
- Nucleic acid encapsulation rate [2]: 78%
- IC50 [3]: 23 nM
- Relative amount of FVII protein (%) [4]: 1%
- Particle size (nm) [5]: 70.6 nm
- Nucleic acid encapsulation rate [6]: 83%

Compound: CCCCCCCCCCCC(=O)OCCN(CCOC(=O)OC(CCCCCC)CCCC(=O)OCC(CCCCCC)CCCCCCCC)CCN(CC)CC (stereo not drawn) [Example 109, 2-Hexyldecyl 6-(2-(dodecanoyloxy)ethyl)-3-ethyl-12-hexyl-10-oxo-9,11-dioxa-3,6-diazahexadecan-16-oate]
- Particle size (nm) [1]: 65.7 nm
- Nucleic acid encapsulation rate [2]: 91%
- IC50 [3]: 26 nM
- Relative amount of FVII protein (%) [4]: 3%
- Particle size (nm) [5]: 62.7 nm
- Nucleic acid encapsulation rate [6]: 86%

Compound: CCCCCCCCCC(=O)OCCN(CCOC(=O)OC(CCCCCC)CCCC(=O)OCC(CCCCCC)CCCCCCCC)CCN(CC)CC (stereo not drawn) [Example 110, 2-Hexyldecyl 6-(2-(decanoyloxy)ethyl)-3-ethyl-12-hexyl-10-oxo-9,11-dioxa-3,6-diazahexadecan-16-oate]
- Particle size (nm) [1]: 60.7 nm
- Nucleic acid encapsulation rate [2]: 87%
- IC50 [3]: 17 nM
- Relative amount of FVII protein (%) [4]: 2%
- Particle size (nm) [5]: 66.1 nm
- Nucleic acid encapsulation rate [6]: 85%

Compound: CCCCCCCCC(CCCCCC)COC(=O)CCCC(CCCCCC)OC(=O)OCCN(CCOC(=O)CCCCCCC)CCN(CC)CC (stereo not drawn) [Example 111, 2-Hexyldecyl 3-ethyl-12-hexyl-6-(2-(octanoyloxy)ethyl)-10-oxo-9,11-dioxa-3,6-diazahexadecan-16-oate]
- Particle size (nm) [1]: 63.9 nm
- Nucleic acid encapsulation rate [2]: 93%
- IC50 [3]: 42 nM
- Relative amount of FVII protein (%) [4]: 2%
- Particle size (nm) [5]: 70.5 nm
- Nucleic acid encapsulation rate [6]: 88%

Compound: CCCCCCCCCCC(CCCCCCCC)COC(=O)CCCC(CCCCCC)OC(=O)OCCN(CCN(CC)CC)C(C)C (stereo not drawn) [Example 112, 2-Octyldodecyl 3-ethyl-12-hexyl-6-isopropyl-10-oxo-9,11-dioxa-3,6-diazahexadecan-16-oate]
- Particle size (nm) [1]: 68.6 nm
- Nucleic acid encapsulation rate [2]: 79%
- IC50 [3]: 18 nM
- Relative amount of FVII protein (%) [4]: 3%
- Particle size (nm) [5]: 74.2 nm
- Nucleic acid encapsulation rate [6]: 100%

Compound: CCCCCCCCCCCCC(CCCCCCCCCC)COC(=O)CCCC(CCCCCC)OC(=O)OCCN(CCN(CC)CC)C(C)C (stereo not drawn) [Example 113, 2-Decyltetradecyl 3-ethyl-12-hexyl-6-isopropyl-10-oxo-9,11-dioxa-3,6-diazahexadecan-16-oate]
- Particle size (nm) [1]: 67.8 nm
- Nucleic acid encapsulation rate [2]: 82%
- IC50 [3]: 21 nM
- Relative amount of FVII protein (%) [4]: 4%
- Particle size (nm) [5]: 66.1 nm
- Nucleic acid encapsulation rate [6]: 100%

Compound: CCCCCCCC/C=C\CCCCCCCC(=O)OCCN(CCOC(=O)OC(CCCCCC)CCCCCCCCC(=O)OCC(CCCCCC)CCCCCCCC)CCN(CC)CC (stereo not drawn) [Example 118, 2-Hexyldecyl 3-ethyl-12-hexyl-6-(2-(oleoyloxy)ethyl)-10-oxo-9,11-dioxa-3,6-diazahenicosan-21-oate]
- Particle size (nm) [1]: 93.6 nm
- Nucleic acid encapsulation rate [2]: 90%
- IC50 [3]: 35 nM
- Relative amount of FVII protein (%) [4]: 9%
- Particle size (nm) [5]: 80.5 nm
- Nucleic acid encapsulation rate [6]: 64%
